Biological target: T1, human LMPTP-A (Homo sapiens, UniProt P24666)
T1 sequence (P24666 1-158): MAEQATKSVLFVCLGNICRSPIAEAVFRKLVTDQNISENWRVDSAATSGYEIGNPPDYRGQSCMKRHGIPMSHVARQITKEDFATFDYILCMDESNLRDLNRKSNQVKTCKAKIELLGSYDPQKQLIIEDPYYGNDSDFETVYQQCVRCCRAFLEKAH
Assay: Enzyme Assay of Inhibition of LMPTP-A
Format: biochemical
Conditions: phosphatase assay, OMFP or pNPP substrate, 50 mM Bis-Tris pH 6.0, 37° C.
Method in brief: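 Recombinant human LMPTP-A in 50 mM Bis-Tris pH 6.0, 1 mM DTT, 0.01% Triton X-100 at 37° C. Substrate OMFP read continuously by fluorescence (485/525 nm), or pNPP stopped with NaOH and read at 405 nm. IC50 taken from inhibitor concentration versus % activity plots.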

**Q.** `Fc1cccc(Nc2ncn(Cc3c(Cl)cccc3Cl)c3ncnc2-3)c1` [{3-[(2,6-Dichlorophenyl)methyl](3-hydropurin-6-yl)}(3-fluorophenyl)amine] was tested. Which IC50 did it give?
**A.** The IC50 was 1 to 20 µM.

**Q.** For `COc1cccc(Nc2ncn(Cc3c(Cl)cccc3Cl)c3ncnc2-3)c1` [{3-[(2,6-Dichlorophenyl)methyl](3-hydropurin-6-yl)}(3-methoxyphenyl)amine], which IC50 is on record?
**A.** Its IC50 is 1 to 20 µM.

**Q.** `Cc1cccc(Nc2ncn(Cc3c(Cl)cccc3Cl)c3ncnc2-3)c1` [{3-[(2,6-Dichlorophenyl)methyl](3-hydropurin-6-yl)}(3-methylphenyl)amine] was tested. Which IC50 did it give?
**A.** The IC50 was 1 to 20 µM.

**Q.** For `Clc1cccc(Cl)c1Cn1cnc(Nc2ccc(Br)cc2)c2ncnc1-2` [{3-[(2,6-Dichlorophenyl)methyl](3-hydropurin-6-yl)}(4-bromophenyl)amine], which IC50 is on record?
**A.** Its IC50 is 1 to 20 µM.

**Q.** With `Fc1ccc(Nc2ncn(Cc3c(Cl)cccc3Cl)c3ncnc2-3)cc1` [{3-[(2,6-Dichlorophenyl)methyl](3-hydropurin-6-yl)}(4-fluorophenyl)amine] as the compound, how does the IC50 read?
**A.** Its IC50 is 1 to 20 µM.

**Q.** With `Cc1ccc(Nc2ncn(Cc3c(Cl)cccc3Cl)c3ncnc2-3)cc1` [{3-[(2,6-Dichlorophenyl)methyl](3-hydropurin-6-yl)}(4-methylphenyl)amine] as the compound, how does the IC50 read?
**A.** Its IC50 is 1 to 20 µM.

**Q.** How did the IC50 turn out when `Clc1cccc(Cl)c1Cn1cnc(Nc2ccc(N3CCOCC3)cc2)c2ncnc1-2` [{3-[(2,6-Dichlorophenyl)methyl](3-hydropurin-6-yl)}(4-morpholin-4-ylphenyl)amine] was run?
**A.** The IC50 was 1 to 20 µM.

**Q.** For `O=[N+]([O-])c1ccc(Nc2ncn(Cc3c(Cl)cccc3Cl)c3ncnc2-3)cc1` [{3-[(2,6-Dichlorophenyl)methyl](3-hydropurin-6-yl)}(4-nitrophenyl)amine], which IC50 is on record?
**A.** Its IC50 is 1 to 20 µM.

**Q.** Which IC50 does the source give for `CCCc1ccc(Nc2ncn(Cc3c(Cl)cccc3Cl)c3ncnc2-3)cc1` [{3-[(2,6-Dichlorophenyl)methyl](3-hydropurin-6-yl)}(4-propylphenyl)amine] here?
**A.** The IC50 was 1 to 20 µM.

**Q.** How did the IC50 turn out when `CC(C)(C)c1ccccc1Nc1ncn(Cc2c(Cl)cccc2Cl)c2ncnc1-2` [{3-[(2,6-Dichlorophenyl)methyl](3-hydropurin-6-yl)}[2-(tert-butyl)phenyl]amine] was run?
**A.** Its IC50 is no less than 20 µM.

**Q.** `CC(C)(C)c1cccc(Nc2ncn(Cc3c(Cl)cccc3Cl)c3ncnc2-3)c1` [{3-[(2,6-Dichlorophenyl)methyl](3-hydropurin-6-yl)}[3-(tert-butyl)phenyl]amine] was tested. Which IC50 did it give?
**A.** Its IC50 is 1 to 20 µM.

**Q.** How did the IC50 turn out when `Clc1cccc(Cl)c1Cn1cnc(Nc2ccccc2)c2ncnc1-2` [{3-[(2,6-Dichlorophenyl)methyl](3-hydropurin-6-yl)}phenylamine] was run?
**A.** Its IC50 is 1 to 20 µM.

**Q.** Which IC50 does the source give for `Clc1ccccc1Nc1ncn(Cc2c(Cl)cccc2Cl)c2ncnc1-2` [{3-[(2,6-Dichlorophenyl)methyl](3-hydropurine-6-yl)}(2-chlorophenyl)amine] here?
**A.** Its IC50 is no more than 1 µM.

**Q.** With `COc1ccc(CNc2ncn(Cc3c(Cl)cccc3Cl)c3ncnc2-3)cc1` [{3-[(2,6-dichlorophenyl)methyl](3-hydropurin-6-yl)}[(4-methoxyphenyl)methyl]amine] as the compound, how does the IC50 read?
**A.** Its IC50 is 1 to 20 µM.

**Q.** Which IC50 does the source give for `Cc1ccc(S(=O)(=O)Nc2ncn(Cc3c(Cl)cccc3Cl)c3ncnc2-3)cc1` [{3-[(2,6-dichlorophenyl)methyl](3-hydropurin-6-yl)}[(4-methylphenyl)sulfonyl]amine] here?
**A.** Its IC50 is no less than 20 µM.

**Q.** How did the IC50 turn out when `Cc1ccc(CNc2ncn(Cc3c(Cl)cccc3Cl)c3ncnc2-3)o1` [{3-[(2,6-dichlorophenyl)methyl](3-hydropurin-6-yl)}[(5-methyl(2-furyl))methyl]amine] was run?
**A.** Its IC50 is 1 to 20 µM.

**Q.** Which IC50 does the source give for `O=S(=O)(Cc1cccc(F)c1)Nc1ncn(Cc2c(Cl)cccc2Cl)c2ncnc1-2` [{3-[(2,6-dichlorophenyl)methyl](3-hydropurin-6-yl)}{[(3-fluorophenyl)methyl]sulfonyl}amine] here?
**A.** Its IC50 is no less than 20 µM.

From patent publication US20200338084A1, “INHIBITORS OF LOW MOLECULAR WEIGHT PROTEIN TYROSINE PHOSPHATASE (LMPTP) AND USES THEREOF” (Sanford Burnham Prebys Medical Discovery Institute, priority 2018, published 2020)
